Data: patent US4264590A, “Antibacterial peptide” (Abbott Laboratories, priority 1980, dated 1981)
Values joined by “and” are separate entries in the source; they are usually repeats but may differ in a detail not shown here. Identical values can stand only once.

Columns and labels:
S. aureus (Smith) = experiment: mouse protection test, CD50 (Table III); type: in vivo; conditions: for F.I.C. Index / CD50 (mg/kg) Combination: S. aureus (Smith) in mice, dipeptide:D-cycloserine 10:1; for CD50 (mg/kg) Combination: amount of peptide only listed, D-cycloserine is 10% of it; for CD50 (mg/kg) Peptide: mice infected i.p. with S. aureus (Smith), dosed subcutaneously, 7 days survival, peptide alone
Procedure: (§1) Charles River mice, weighing approximately 20 g. each, are infected intraperitoneally with 10-100 times the LD of the infecting organism. At predetermined intervals post-infection, e.g., 1 and 5 hours, mice are dosed subcutaneously with graded doses of the halogenated peptide, antibiotic and combination thereof. The number of mice surviving each treatment for 7 days post-infection is observed and the CD50 is calculated. The fractional inhibitory concentration (F.I.C.) for each combination is calculated in the usual manner.
(§2) In this table, the following infecting microorganisms were used:
(§3) The infecting organisms are listed by the above code; the compounds are listed by their Example number. In all instances, the dipeptide and D-cycloserine were tested at a ratio of 10:1. The CD50 combination column lists only the amount of peptide present; the D-cycloserine amount is 10% of the listed amount.

E. coli (Juhl) [1] = experiment: mouse protection test, CD50 (Table III); type: in vivo
Procedure: as §1, §2, §3

E. coli (Juhl) [2] = experiment: serial dilution in synthetic medium in test tubes, MIC and F.I.C. index (Table II); type: cell-based; conditions: for MIC ppm Peptide: peptide alone, E. coli (Juhl), 35-37° C., 16-20 hours
Procedure: The halogenated peptides alone, the antibiotic alone or mixtures of the halogenated peptides and selected antibiotics are prepared in sterile concentrated aqueous solutions at the desired ratios. Serial dilutions are made to give a range of concentrations of the test substances. Samples of the dilutions are mixed with an appropriate sterile synthetic medium in test tubes. The tubes are then inoculated with an appropriate test organism and incubated at 35°-37° C. for 16-20 hours. Minimum inhibitory concentrations, i.e., that concentration which inhibits visible growth, are read and the fractional inhibitory concentration indices (F.I.C.) are calculated. In all instances, E. coli (Juhl) was used as the infecting microorganism.

[3] = combination with D-cycloserine, ratio Pep/Antib. 1:1
[4] = combination with D-cycloserine, ratio Pep/Antib. 1:8
[5] = combination with carbencillin, ratio Pep/Antib. 1:1
[6] = combination with carbencillin, ratio Pep/Antib. 1:8
[7] = combination with D-cycloserine, ratio Pep/Antib. 8:1

Compound	F.I.C. Index (S. aureus (Smith))	CD50 (mg/kg) Combination (S. aureus (Smith))	CD50 (mg/kg) Peptide (S. aureus (Smith)) [mg/kg]	F.I.C. Index (E. coli (Juhl) [2]; [3])	MIC ppm Pep/Antib., antibiotic part (E. coli (Juhl) [2]; [3]) [ppm]	MIC ppm Pep/Antib., peptide part (E. coli (Juhl) [2]; [3]) [ppm]	F.I.C. Index (E. coli (Juhl) [2]; [4])	MIC ppm Pep/Antib., antibiotic part (E. coli (Juhl) [2]; [4]) [ppm]	MIC ppm Pep/Antib., peptide part (E. coli (Juhl) [2]; [4]) [ppm]	MIC ppm Peptide (E. coli (Juhl) [2])	also measured
CC(C)C[C@H](N)C(=O)N[C@H](CF)C(=O)O [Example 4, L-Leu-βF-D-Ala]	0.25	1.6 mg/kg	7.4	0.008	0.1	0.1	0.06	0.78	0.1	> 200 ppm and > 100 ppm	F.I.C. Index (E. coli (Juhl) [1]; E. coli (Juhl) in mice, dipeptide:D-cycloserine 10:1): 0.41; CD50 (mg/kg) Combination (E. coli (Juhl) [1]; E. coli (Juhl) in mice, dipeptide:D-cycloserine 10:1, amount of peptide only listed, D-cycloserine is 10% of it): 10.1 mg/kg; CD50 (mg/kg) Peptide (E. coli (Juhl) [1]; mice infected i.p. with E. coli (Juhl), dosed subcutaneously, 7 days survival, peptide alone): 25.9 mg/kg; F.I.C. Index (E. coli (Juhl) [2]; [5]): 0.25; MIC ppm Pep/Antib., antibiotic part (E. coli (Juhl) [2]; [5]): 1.56 ppm; MIC ppm Pep/Antib., peptide part (E. coli (Juhl) [2]; [5]): 1.56 ppm; F.I.C. Index (E. coli (Juhl) [2]; [6]): 2.0; MIC ppm Pep/Antib., antibiotic part (E. coli (Juhl) [2]; [6]): 12.5 ppm; MIC ppm Pep/Antib., peptide part (E. coli (Juhl) [2]; [6]): 1.56 ppm
N[C@@H](Cc1ccccc1)C(=O)N[C@H](CF)C(=O)O [Example 5, L-Phe-βF-D-Ala]	0.99	13.6 mg/kg	14.4								
NCCCC[C@H](N)C(=O)N[C@H](CF)C(=O)O [Example 6, L-Lys-βF-D-Ala]	0.08 and 0.13	6.8 mg/kg and 4.0 mg/kg									
O=C(N[C@H](CF)C(=O)O)[C@@H]1CCCN1 [Example 7, L-Pro-βF-D-Ala]	0.35	3.7 mg/kg	12.2								
N[C@@H](CO)C(=O)N[C@H](CF)C(=O)O [Example 8, L-Ser-βF-D-Ala]	0.13	5.2 mg/kg	48	0.008	0.1	0.1	0.03	0.39	0.05	> 800 ppm	F.I.C. Index (E. coli (Juhl) [2]; [7]): 0.004; MIC ppm Pep/Antib., antibiotic part (E. coli (Juhl) [2]; [7]): 0.05 ppm; MIC ppm Pep/Antib., peptide part (E. coli (Juhl) [2]; [7]): 0.39 ppm
